Experimental findings from patent US7576129B2, “Carboxylic acid compounds” (Ono Pharmaceutical Co., Ltd., priority 2003, dated 2009) are described below.

Common to all, as to type: in vivo, rat
Test [1] deals with adjuvant-induced arthritis model. The test can be described thus: Pain reaction of adjuvant-induced arthritis model (squeaking reaction). The note with it: Lewis male rats, oral, 1, 3, 10 and 30 mg/kg, observed 1-4 hours after administration. As for the experimental part:
A suppressive effect of the compound of the present invention to pain reaction of an adjuvant-induced arthritis model which is a pain model for chronic arthritis was investigated as follows using a squeaking reaction as an index. Lewis male rats of seven weeks age were used. After volume of the left hind leg of each rat was measured, 600 μg/100 μL of dried cells of Mycobacterium butyricum (Difco) suspended in liquid paraffin was injected as an adjuvant into paw skin of a right hind leg to prepare an adjuvant-arthritis rat. After 22 days from injection of the adjuvant, bending and stretching of a knee joint of the left hind leg were conducted for five times before oral administration of a test substance and the rats which squeaked for all of the five times were subjected to the experiment. Depending upon the volume of edema of left hind leg on the previous day, grouping was conducted where one group comprised ten rats. Each of the compound of the present invention (1, 3, 10 and 30 mg/kg) and a 0.5% aqueous solution of methyl cellulose (5 mL/kg) as a control was orally administered. An analgesic action was observed after 1, 2, 3 and 4 hour(s) from the administration.

In test [2] the test system is carrageenin-induced hyperalgesia model. The test can be described thus: Carrageenin-induced hyperalgesia model (escape latency, plantar test). As to conditions: male SD rats, oral 3, 10 and 30 mg/kg 1 hour before carrageenin, 3 hours after injection. As for the experimental part:
An analgesic effect of the compound of the present invention to carrageenin-induced hyperalgesia model which was an acute inflammation pain model was investigated as follows using escape latency as an index. Male rats of an SD strain of seven weeks age were used. Thermal stimulation was irradiated to right hind leg of each rat using a measuring device for a plantar test and the time until escape raising the leg was measured and used as the escape latency. Depending upon the escape latency, grouping was conducted where each group comprised 7 to 8 rats and each of the compound of the present invention (3, 10 and 30 mg/kg) and a 0.5% aqueous solution of methyl cellulose (5 mL/kg) as a control was orally administered. After 1 hour from the oral administration of a test substance, carrageenin (2 mg/100 μL) dissolved in a physiological saline was subcutaneously injected to the sole of right hind leg of the rat. The escape latency during 3 hours after injection of carrageenin was measured.

The test system of test [3] is pollakiuria model induced by sulprostone. The test can be described thus: Pollakiuria model induced by sulprostone (urination frequency). The note with it: male Crj: CD (SD) IGS rats, oral 3, 10, 30 and 100 mg/kg 0.5 hour before sulprostone s.c., 3 hours measurement. As for the experimental part: A suppressive action of the compound of the present invention to a pollakiuria model induced by sulprostone was investigated as follows. Male Crj: CD (SD) IGS rats of body weight of about 300 g were used. Each of the compound of the present invention (3, 10, 30 and 100 mg/kg) and a 0.5% aqueous solution of methyl cellulose (5 mL/kg) as a control was orally administered. After 0.5 hour from oral administration of a test substance, sulprostone (0.2 mg/4 mL/kg) was subcutaneously administered. As a non-induced group, a 0.5% aqueous solution of methyl cellulose was orally administered and, after […], a physiological saline was subcutaneously administered. Measurement of urination was conducted from immediately after administration of sulprostone until 3 hours thereafter. Measurement of urination was done in such a manner that, under the condition of giving neither feed nor water, the animals were placed in a metabolic cage equipped with a urine measuring device and weight of the collected urine with a lapse of time was recorded using a data-collecting system. Incidentally, case numbers for each group were made 3 to 4 cases.

SMILES strings stand for the structures.

For `Cc1cc(C)cc([C@@H](CC(C)C)NC(=O)c2cc(COc3cc(F)ccc3C)ccc2CCC(=O)O)c1` [compound (I), 3-(2-((((1R)-1-(3,5-dimethylphenyl)-3-methylbutyl)amino)carbonyl)-4-(5-fluoro-2-methylphenoxymethyl)phenyl)propanoic acid], the “dose as from which individual positive for the analgesic action was noted” value in test [1] is listed as not above 10 mg/kg. For the same compound, the “dose as from which escape latency was significantly high as compared with the control group” value in test [2] is given as “not more than 10 mg/kg”. For the same compound, in test [3], the “dose as from which urination frequency showed low values” is listed as “not more than 30 mg/kg”.
